For the molecule `O=C(NCC12CC3CC(CC(C3)C1)C2)c1cc(-c2cc(F)ccc2C(=O)O)ccc1Cl` [Example 36, 4′-Chloro-5-fluoro-3′-[[(tricyclo[3.3.1.1^3,7]dec-1-ylmethyl)amino]carbonyl]-[1,1′-biphenyl]-2-carboxylic acid], the melting point (in general, the temperature, or range, at which the solid turns liquid) lay within 120 to 124 °C. To `O=C(O)Cc1ccccc1-c1ccc(Cl)c(C(=O)NCC23CC4CC(CC(C4)C2)C3)c1` [Example 37, 4′-Chloro-3′-[[(tricyclo[3.3.1.1^3,7]dec-1-ylmethyl)amino]carbonyl]-[1,1′-biphenyl]-2-acetic acid] belongs 200 to 202 °C. Regarding `O=C(O)COc1cccc(-c2ccc(Cl)c(C(=O)NCC34CC5CC(CC(C5)C3)C4)c2)c1` [Example 38, [[4′-Chloro-3′-[[(tricyclo[3.3.1.1^3,7]dec-1-ylmethyl)amino]carbonyl][1,1′-biphenyl]-3-yl]oxy]-acetic acid], the melting point is 99 to 101 °C. For `C[C@@H](Oc1ccccc1-c1ccc(Cl)c(C(=O)NCC23CC4CC(CC(C4)C2)C3)c1)C(=O)O` [Example 39, (2R)-2-[[4′-Chloro-3′-[[(tricyclo[3.3.1.1^3,7]dec-1-ylmethyl)amino]carbonyl][1,1′-biphenyl]-2-yl]oxy]-propanoic acid], the melting point was in the range of 133 to 137 °C.

For the molecule `O=C(O)COc1ccc(-c2ccc(Cl)c(C(=O)NCC34CC5CC(CC(C5)C3)C4)c2)cc1` [Example 40, [[4′-Chloro-3′-[[(tricyclo[3.3.1.1^3,7]dec-1-ylmethyl)amino]carbonyl][1,1′-biphenyl]-4-yl]oxy]-acetic acid], the melting point is 136 to 140 °C.

For the molecule `C[C@H](Oc1cccc(-c2ccc(Cl)c(C(=O)NCC34CC5CC(CC(C5)C3)C4)c2)c1)C(=O)O` [Example 41, (2S)-2-[[4′-Chloro-3′-[[(tricyclo[3.3.1.1^3,7]dec-1-ylmethyl)amino]carbonyl][1,1′-biphenyl]-3-yl]oxy]-propanoic acid], the melting point fell in the range of 115 to 120 °C. To `O=C(NCC12CC3CC(CC(C3)C1)C2)c1cc(-c2ccc(Cl)cc2C(=O)O)ccc1Cl` [Example 42, 4,4′-Dichloro-3′-[[(tricyclo[3.3.1.1^3,7]dec-1-ylmethyl)amino]carbonyl]-[1,1′-biphenyl]-2-carboxylic acid] belongs 207 to 210 °C.

The molecule `C[C@H](Oc1ccc(-c2ccc(Cl)c(C(=O)NCC34CC5CC(CC(C5)C3)C4)c2)cc1)C(=O)O` [Example 43, (2S)-2-[[4′-Chloro-3′-[[(tricyclo[3.3.1.1^3,7]dec-1-ylmethyl)amino]carbonyl][1,1′-biphenyl]-4-yl]oxy]-propanoic acid] showed a melting point of 145 to 150 °C.

As for `O=C(NCC12CC3CC(CC(C3)C1)C2)c1cc(-c2ccc(Cl)c(C(=O)O)n2)ccc1Cl` [Example 44, 3-Chloro-6-[4-chloro-3-[[(tricyclo[3.3.1.1^3,7]dec-1-ylmethyl)amino]carbonyl]phenyl]-2-pyridinecarboxylic acid], the melting point was in the range of 154 to 159 °C.

Turning to `O=C(O)COc1cccnc1-c1ccc(Cl)c(C(=O)NCC23CC4CC(CC(C4)C2)C3)c1` [Example 46, [[2-[4-Chloro-3-[[(tricyclo[3.3.1.1^3,7]dec-1-ylmethyl)amino]carbonyl]phenyl]-3-pyridinyl]oxy]-acetic acid], the melting point is 133 to 137 °C. In the case of `O=C(O)CNc1cccnc1-c1ccc(Cl)c(C(=O)NCC23CC4CC(CC(C4)C2)C3)c1` [Example 47, N-[2-[4-Chloro-3-[[(tricyclo[3.3.1.1^3,7]dec-1-ylmethyl)amino]carbonyl]phenyl]-3-pyridinyl]-glycine], the melting point lay in the range of 190 to 194 °C. With `O=C(NCC12CC3CC(CC(C3)C1)C2)c1cc(-c2cc(F)c(F)cc2C(=O)O)ccc1Cl` [Example 48, 4′-Chloro-4,5-difluoro-3′-[[(tricyclo[3.3.1.1^3,7]dec-1-ylmethyl)amino]carbonyl]-[1,1′-biphenyl]-2-carboxylic acid] the figure was 121 to 125 °C; with `O=C(NCCC12CC3CC(CC(C3)C1)C2)c1cc(-c2ccccc2C(=O)O)ccc1Cl` [Example 49, 4′-Chloro-3′-[[(2-tricyclo[3.3.1.1^3,7]dec-1-ylethyl)amino]carbonyl]-[1,1′-biphenyl]-2-carboxylic acid], 114 to 117 °C; with `O=C(NCCC12CC3CC(CC(C3)C1)C2)c1cc(-c2cccnc2C(=O)O)ccc1Cl` [Example 50, 3-[4-Chloro-3-[[(2-tricyclo[3.3.1.1^3,7]dec-1-ylethyl)amino]carbonyl]phenyl]-2-pyridinecarboxylic acid], 108 to 111 °C. To `O=C(NCC12CC3CC(CC(C3)C1)C2)c1cc(-c2ccc(F)cc2C(=O)O)ccc1Cl` [Example 51, 4′-Chloro-4-fluoro-3′-[[(tricyclo[3.3.1.1^3,7]dec-1-ylmethyl)amino]carbonyl]-[1,1′-biphenyl]-2-carboxylic acid] belongs 126 to 128 °C. With `O=C(NCC12CC3CC(CC(C3)C1)C2)c1cc(-c2ccccc2C(=O)O)ncc1Cl` [Example 52, 2-[5-Chloro-4-[[(tricyclo[3.3.1.1^3,7]dec-1-ylmethyl)amino]carbonyl]-2-pyridinyl]-benzoic acid] the figure was 134 to 138 °C. `Cc1ccnc(-c2ccc(Cl)c(C(=O)NCC34CC5CC(CC(C5)C3)C4)c2)c1C(=O)O` [Example 53, 2-[4-Chloro-3-[[(tricyclo[3.3.1.1^3,7]dec-1-ylmethyl)amino]carbonyl]phenyl]-4-methyl-3-pyridinecarboxylic acid]: the melting point was 177 to 180 °C.

On to `CN(CCO)c1nc(-c2ccc(Cl)c(C(=O)NCC34CC5CC(CC(C5)C3)C4)c2)ccc1C(=O)O` [Example 54, 6-[4-Chloro-3-[[(tricyclo[3.3.1.1^3,7]dec-1-ylmethyl)amino]carbonyl]phenyl]-2-[(2-hydroxyethyl)methylamino]-3-pyridinecarboxylic acid], for which the melting point lay in the range of 121 to 124 °C.

In turn, `Cc1ccc(-c2cccnc2C(=O)O)cc1C(=O)NCC12CC3CC(CC(C3)C1)C2` [Example 55, 3-[4-Methyl-3-[[(tricyclo[3.3.1.1^3,7]dec-1-ylmethyl)amino]carbonyl]phenyl]-2-pyridinecarboxylic acid] came in with a melting point of 181 to 183 °C. To `Cc1nn(C)c(C(=O)O)c1-c1ccc(Cl)c(C(=O)NCC23CC4CC(CC(C4)C2)C3)c1` [Example 56, 4-[4-Chloro-3-[[(tricyclo[3.3.1.1^3,7]dec-1-ylmethyl)amino]carbonyl]phenyl]-1,3-dimethyl-1H-pyrazole-5-carboxylic acid] belongs 207 °C; to `O=C(NCC12CC3CC(CC(C3)C1)C2)c1cc(-c2cccnc2N2CCC(C(=O)O)CC2)ccc1Cl` [Example 59, 1-[3-[4-Chloro-3-[[(tricyclo[3.3.1.1^3,7]dec-1-ylmethyl)amino]carbonyl]phenyl]-2-pyridinyl]-4-piperidinecarboxylic acid], 110 to 115 °C. With `O=C(NCC12CC3CC(CC(C3)C1)C2)c1cc(-c2cccnc2N2CCC[C@H]2C(=O)O)ccc1Cl` [Example 60, 1-[3-[4-Chloro-3-[[(tricyclo[3.3.1.1^3,7]dec-1-ylmethyl)amino]carbonyl]phenyl]-2-pyridinyl]-L-proline] the figure was 121 to 125 °C. `O=C(NCC12CC3CC(CC(C3)C1)C2)c1cc(-c2cccnc2N2CCCC(C(=O)O)C2)ccc1Cl` (stereo not shown) [Example 61, 1-[3-[4-Chloro-3-[[(tricyclo[3.3.1.1^3,7]dec-1-ylmethyl)amino]carbonyl]phenyl]-2-pyridinyl]-3-piperidinecarboxylic acid]: the melting point is 125 to 130 °C. In turn, `O=C(NCC12CC3CC(CC(C3)C1)C2)c1cc(-c2cccnc2N2CC(C(=O)O)C2)ccc1Cl` [Example 62, 1-[3-[4-Chloro-3-[[(tricyclo[3.3.1.1^3,7]dec-1-ylmethyl)amino]carbonyl]phenyl]-2-pyridinyl]-3-azetidinecarboxylic acid] registered a melting point of 145 to 150 °C. With `Cc1ccc(-c2ccc(Cl)c(C(=O)NCC34CC5CC(CC(C5)C3)C4)c2)c(C(=O)O)n1` [Example 63, 3-[4-Chloro-3-[[(tricyclo[3.3.1.1^3,7]dec-1-ylmethyl)amino]carbonyl]phenyl]-6-methyl-2-pyridinecarboxylic acid] the figure was 125 to 130 °C. Regarding `Cc1cnc(C(=O)O)c(-c2ccc(Cl)c(C(=O)NCC34CC5CC(CC(C5)C3)C4)c2)c1` [Example 64, 3-[4-Chloro-3-[[(tricyclo[3.3.1.1^3,7]dec-1-ylmethyl)amino]carbonyl]phenyl]-5-methyl-2-pyridinecarboxylic acid], the melting point fell in the range of 125 to 130 °C. With `O=C(NCC12CC3CC(CC(C3)C1)C2)c1cc(-c2cccnc2N2CCC(O)(C(=O)O)CC2)ccc1Cl` [Example 65, 1-[3-[4-Chloro-3-[[(tricyclo[3.3.1.1^3,7]dec-1-ylmethyl)amino]carbonyl]phenyl]-2-pyridinyl]-4-hydroxy-4-piperidinecarboxylic acid] the figure was 145 to 150 °C. To `O=C(NCC12CC3CC(CC(C3)C1)C2)c1cc(-c2cc(F)cnc2N2CCC(C(=O)O)CC2)ccc1Cl` [Example 66, 1-[3-[4-Chloro-3-[[(tricyclo[3.3.1.1^3,7]dec-1-ylmethyl)amino]carbonyl]phenyl]-5-fluoro-2-pyridinyl]-4-piperidinecarboxylic acid] belongs 130 to 135 °C; to `Cc1ccc(-c2ccccc2C(=O)O)cc1C(=O)NCC12CC3CC(CC(C3)C1)C2` [Example 67, 4′-Methyl-3′-[[(tricyclo[3.3.1.1^3,7]dec-1-ylmethyl)amino]carbonyl]-[1,1′-biphenyl]-2-carboxylic acid], 85 to 92 °C; to `Cc1ccc(-c2cccnc2N2CCC(C(=O)O)CC2)cc1C(=O)NCC12CC3CC(CC(C3)C1)C2` [Example 68, 1-[3-[4-Methyl-3-[[(tricyclo[3.3.1.1^3,7]dec-1-ylmethyl)amino]carbonyl]phenyl]-2-pyridinyl]-4-piperidinecarboxylic acid], 60 °C. To `Cc1ccc(-c2cccc(C(=O)O)n2)cc1C(=O)NCC12CC3CC(CC(C3)C1)C2` [Example 69, 6-[4-Methyl-3-[[(tricyclo[3.3.1.1^3,7]dec-1-ylmethyl)amino]carbonyl]phenyl]-2-pyridinecarboxylic acid] belongs 227 °C.

The values are drawn from patent US20080153850A1, “Adamantyl Derivates as P2x7 Receptor Antagonists” (AstraZeneca AB, priority 2004, published 2008).
